Source: US20250188032A1, “NITROGEN-CONTAINING HETEROCYCLIC COMPOUNDS AND USES THEREOF” (BNH RESEARCH CO., LTD., priority 2022, published 2025)

Tested on: GluN2B
Assay: Western blot of GluN2B protein in cultured fetal cortical cells
Assay type: cell-based, mice
Description: The amount of GluN2B reacted with the compound of the present disclosure was measured using Western blot. The fetal cerebral cortex was extracted from mice at 17 days of gestation, dissociated into single cells, cultured for 13 days, and treated with BnH drugs for 24 hours. The drug-treated cells were subjected to protein lysate preparation using RIPA protein lysis buffer containing protease and phosphatase inhibitors. The protein concentration was determined using a BCA protein assay kit (Pierce Biotechnology) using bovine serum albumin as a standard. Equal amounts of protein (20 μg per lane) were separated by electrophoresis on SDS-polyacrylamide gels at 90 V for 2 hours, then transferred from the SDS-polyacrylamide gel to PVDF membrane at 100 V for 1 hour. Then, primary reaction with GluN2B antibody (ab65783, Abcam) was performed at 4° C. for 1 day, washed three times at 10-minutes intervals with 1×PBT, and secondary reaction was performed with anti-mouse antibody (sc-2357, Santa Cruz) for 1 hour, followed by washing three times at 10-minutes intervals with 1×PBT. Western blotting was performed as described above to confirm GluN2B protein expression. Subsequently, each blot was re-probed using anti-β-actin antibody (sc-47778, Santa Cruz). Housekeeping protein β-actin was detected as a normalization control.
The increase and decrease of BnH12 series were confirmed by setting the vehicle to 1 (N for each group was 3 or more).
Using the experimental procedure described in Example 3, it was determined whether various BnH12 series compounds increase GluN2B expression, and the results are shown in Table 6. These in vitro experimental results are expressed as relative values to the group (vehicle) that was not treated with the compound, with the effect of the group set to 1.

C[C@@H]1CC[C@H](C(=O)O)CN1C(=O)Cc1ccc(F)cc1Cl [BnH12001 enantiomer (3S,6R, 98%<), (3S,6R)-1-(2-(2-chloro-4-fluorophenyl)acetyl)-6-methylpiperidine-3-carboxylic acid]
Effect on GluN2B expression compared to the vehicle (comment on Table 6): excellent effects
GluN2B expression, Western blot results, Mean (relative value, vehicle set to 1, treated for 24 hours, N 3 or more): 1.548
